Experimental data from BindingDB's records for doi:10.1016/j.ejmech.2013.06.030 (National Institute On Drug Abuse and The National Institute …, 2013).

Molecular target: Delta-type opioid receptor (Homo sapiens, UniProt P41143)
Assay: Displacement of [3H]DADLE from human delta opioid receptor expressed in CHO cells after 2 hrs by liquid scintillation counting

Sequence of Delta-type opioid receptor (P41143 whole entry): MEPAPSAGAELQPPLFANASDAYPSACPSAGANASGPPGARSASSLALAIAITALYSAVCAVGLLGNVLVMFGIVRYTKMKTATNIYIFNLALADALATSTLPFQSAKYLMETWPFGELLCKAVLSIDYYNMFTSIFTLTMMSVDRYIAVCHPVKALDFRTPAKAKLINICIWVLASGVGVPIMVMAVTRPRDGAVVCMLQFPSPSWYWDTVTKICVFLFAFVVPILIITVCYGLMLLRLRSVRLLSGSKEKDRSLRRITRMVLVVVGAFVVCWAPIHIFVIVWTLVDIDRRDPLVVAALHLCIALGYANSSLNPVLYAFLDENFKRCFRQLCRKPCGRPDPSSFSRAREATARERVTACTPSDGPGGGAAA

| Compound | Ki [nM] |
| --- | --- |
| C[C@H]1C[C@H]2C[C@](c3cccc(O)c3)(CCN2C)C1 | 721 |
| Oc1cccc([C@]23CCN(CCc4ccccc4)[C@H](C2)[C@H]2CCCC[C@@H]2C3)c1 | 103 |
| C[C@H]1CC[C@@]2(c3cccc(O)c3)CCN(CCc3ccccc3)[C@@H]1C2 | 126 |
| CN1CC[C@]2(c3cccc(O)c3)C[C@@H](c3ccccc3)C[C@H]1C2 | 583 |
| Oc1cccc([C@@]23CCN(CCc4ccccc4)[C@@H](C[C@H](c4ccccc4)C2)C3)c1 | 318 |
| C[C@H]1CC[C@@]2(c3cccc(O)c3)CCN(C)[C@@H]1C2 | 139 |
| Oc1cccc([C@@]23CCN(CCc4ccccc4)[C@H](C[C@@H](O)C2)C3)c1 | 876 |
| C[C@H]1C[C@H]2C[C@](c3cccc(O)c3)(CCN2CCc2ccccc2)C1 | 260 |
